# How the values were obtained:
# Format in all cases: physicochemical
# [1] = Freeze point by DSC (USP <891>); conditions: Example materials at 1% by volume in water
# Experimental: In order to evaluate freezing point, the samples are analyzed using a TA Instruments Q100 DSC equipped with an RCS-90 cooling system following USP <891>.
# [2] = Conductivity of diluted samples (EPA method 120.1); conditions: samples diluted with de-ionized water; Example materials at 1% by volume in water
# Text: In order to test for conductivity the samples are each diluted with de-ionized water for analysis. The testing is completed using a Mettler Toledo Seven Excellence Meter with a conductivity probe following EPA method 120.1.
# [3] = Excess hydrogen ion concentration and pH after admixing with water; conditions: 5 ml material in 5 ml deionized and distilled water, standard temperature and pressure
# Experimental: The excess hydrogen ion concentration is measured as greater than 15% by volume and the pH of the material is determined to be 1.
# [4] = Acidity titration for hydrogen ion content (ASTM D1067 Test Method A); conditions: titrated to pH 8.6; Example materials at 1% by volume in water
# Text: The testing was completed using a Metrohm 826 Titrando equipped with a pH probe.
substance,measurement,setting,value
"hydrogen (1+), triaqua-μ3-oxotri sulfate (1:1) [Example I]",Melting Temperature (freeze point),[1],−9.07 °C
same,Conductivity,[2],551 mS/cm
same,pH,[3],1
same,Acidity @ pH 8.6,[4],1307.28 meq/L
